SMILES | logP
Cc1ccc(C(C)C)cc1O | 3.49
CC(C)=CCC[C@@H](C)CC=O | 3.83
CC12CCC(CC1)C(C)(C)O2 | 2.74
CC(C)=CCC/C(C)=C/CO | 3.56
CC(=O)OC/C=C(\C)CCC=C(C)C | 4.04
CC1(C)C2CCC(CN)C1C2 (centres undefined) | 2.05
CC(C)C12CCC(C)(CC1)O2 | 2.97
C=C1[C@H]2CC[C@H](C2)C1(C)C | 4.22
C=CC(C)(CCC=C(C)C)OC(C)=O (centres undefined) | 3.93
CC(=O)OC1CC(C)CCC1C(C)C (racemic) | 4
C=C(C)[C@@H]1CC=C(C=O)CC1 | 3.13
CC(C)=C1CC[C@@H](C)CC1=O | 3.08
CC1(C)[C@H]2CC[C@](C)(C2)[C@H]1O | 3.17
C=C1CCC2CC1C2(C)C (centres undefined) | 4.16
C=C(C)C1CCC(C)C(=O)C1 (centres undefined) | 2.85
CC12CCC(C1)C(C)(C)C2=O (centres undefined) | 3.52
CC(C)[C@@H]1CC[C@@H](C)CC1=O | 3.05
C=C(C)C1CCC2(C)OC2C1 (centres undefined) | 3.2
CC=Cc1ccc(O)c(OC)c1 | 3.04

The remaining lines, values ahead:

logP | SMILES
3.24 | CC1(C)[C@@H]2CC[C@@]1(C)[C@H](O)C2
2.85 | CC1=CC(=O)C(C(C)C)CC1 (centres undefined)
3.22 | CC1(C)C2CC=C(CO)C1C2 (centres undefined)
2.71 | C=C(C)[C@@H]1CC=C(C)C(=O)C1
2.43 | C=CC1(C)CCC(C(C)(C)O)O1 (centres undefined)
3.26 | CC1=CCC(O)(C(C)C)CC1 (centres undefined)
2.23 | CC1=CC(=O)[C@H]2C[C@@H]1C2(C)C
2.42 | CC1=CCC2C(C1=O)C2(C)C (centres undefined)
4.25 | CC1=CC=C(C(C)C)CC1
1.81 | CC1=CCC(C(C)(C)O)C[C@@H]1O (some centres undefined)
3.12 | C=C(C)C1CC=C(C)C(O)C1 (centres undefined)
3.96 | CC(=O)OC(C)(C)C1CC=C(C)CC1 (centres undefined)
3.17 | C=C(C)C1CC=C(CO)CC1 (centres undefined)
3.21 | C=C(C)C1CCC(C)C(O)C1 (centres undefined)
4.44 | CC1=CC2C(CC1)C2(C)C (centres undefined)
3.4 | CC1CCC(C(C)C)C(O)C1 (centres undefined)
4.38 | CC1=CCC2C(C1)C2(C)C (centres undefined)
3.16 | CC1=CC(O)C2CC1C2(C)C (centres undefined)
3.85 | CC(=O)/C=C/C1C(C)=CCCC1(C)C (centres undefined)
2.98 | CC1(C)C2CC=C(C=O)C1C2 (centres undefined)
